48 molecules from the Deep4Chem optical property database can be followed below.

Several values for one entry are separate records, joined by “and”; a condition that tells them apart may be missing. Identical values can stand only once.

The nature of this data set: solvent given as SMILES.
Where [1] appears, read: in O=P(c1ccccc1)(c1ccccc1)c1ccccc1Oc1ccccc1P(=O)(c1ccccc1)c1ccccc1.

For the molecule `CCOC(=O)c1ccc2nc(/N=N/c3ccc(N(CC)CC)cc3)sc2c1`, the fluorescence lifetime runs as follows: (in CC#N) 5.59 ns; (in ClCCl) 5.33 ns.
Under “in CC#N”, `O=c1[nH]cc(F)c(=O)[nH]1` had a fluorescence lifetime of 0.0004 ns.
As to `CC1(C)c2ccccc2N(c2ccc(-c3nnc(-c4ccccc4)o3)cc2)c2ccccc21`, the fluorescence lifetime by setting is: (in Cc1ccccc1) 7 ns; (in c1ccc(-n2c(-c3c(-n4c5ccccc5c5ccccc54)cccc3-n3c4ccccc4c4ccccc43)nc3ccccc32)cc1) 7.8 ns.
In the case of `COc1nc(Nc2ccc3c4cccc5cccc(c6cccc2c63)c54)nc(OC)n1`, the fluorescence lifetime was found to be 3.5 ns (in CCOC(C)=O) and 4 ns (in CS(C)=O).
In the case of `F[B-]1(F)OC(C#Cc2ccccc2)=C2CCc3ccccc3C2=[O+]1`, for the setting “in ClCCl”, the fluorescence lifetime came to 2.79 ns.
In turn, `CCCCn1c(-c2ccc(-c3nnc(-c4ccccc4)o3)cc2)nc2c3ccccc3c3ccccc3c21` yielded a fluorescence lifetime (in ClCCl) of 1.84 ns.
Regarding `CC1(C)c2ccccc2N(c2cc[n+]3c(c2)-c2ccccc2O[B-]3(F)F)c2ccccc21`, under setting [1], the fluorescence lifetime was 6.2 ns.
Molecule `CCN(CC)c1ccc(/C=N/Nc2ccc(C#N)cc2)c(O)c1` returned a fluorescence lifetime (in CO) of 1.63 ns.
Regarding `c1ccc(-c2nc(-c3ccccc3)nc(-c3ccc(-n4c5ccccc5c5cc6c(cc54)C4c5ccccc5C6c5ccccc54)cc3)n2)cc1`, the fluorescence lifetime under setting [1] amounted to 9 ns.
For `Cn1cc(-c2nc3ccccc3nc2/C=C/N2CCCC2)c2ccccc21`, the fluorescence lifetime (in C1CCCCC1) turned out to be 1.27 ns; the fluorescence lifetime (in C1CCOC1) worked out at 5.12 ns; the fluorescence lifetime (in CC#N) was 6.75 ns; the fluorescence lifetime (in CC(C)=O) came out at 6.42 ns; the fluorescence lifetime (in CCO) is 0.75 ns; the fluorescence lifetime (in CO) worked out at 0.19 ns. Further, the fluorescence lifetime (in CS(C)=O) is 7.19 ns, the fluorescence lifetime (in Cc1ccccc1) is 3.62 ns and the fluorescence lifetime (in ClCCl) was determined as 7.01 ns.
For `CCCCCCCCOc1cc(/C=C/c2cc(OCCCCCCCC)c(/C=C/c3cc(OCCCCCCCC)c(/C=C/c4ccncc4)cc3OCCCCCCCC)cc2OCCCCCCCC)c(OCCCCCCCC)cc1/C=C/c1ccncc1`, the fluorescence lifetime (in ClCCl) is 1.27 ns.
Under “in Cc1ccccc1”, `CCCCOc1ccc(/C=C/C=C/C=C/c2ccc([N+](=O)[O-])cc2)cc1` had a fluorescence lifetime of 1.7 ns.
In turn, `Cc1cc(C)c2c(c1)c1cc(C)cc(C)c1n2-c1ccc2c(c1)Oc1cc3c(cc1B2c1c(C(C)C)cc(C(C)C)cc1C(C)C)B(c1c(C(C)C)cc(C(C)C)cc1C(C)C)c1ccccc1O3` had a fluorescence lifetime (in Cc1ccccc1) of 21 ns and a fluorescence lifetime (in O=P(c1ccccc1)(c1ccccc1)c1ccc2oc3ccc(P(=O)(c4ccccc4)c4ccccc4)cc3c2c1) of 25 ns.
Regarding `Clc1nc(Nc2ccccc2)nc(Nc2ccc3cc4ccccc4cc3c2)n1`, the fluorescence lifetime is, setting by setting: (in C1COCCO1) 10.3 ns; (in CCOC(C)=O) 6.6 ns.
In the case of `O=C1c2ccc3c4ccc5c6c(ccc(c7ccc(c2c37)C(=O)N1c1ccc(O)cc1)c64)C(=O)N(c1ccc(O)cc1)C5=O`, the fluorescence lifetime is 1.6 ns (in C1CCOC1); 0.2 ns (in CN1CCCC1=O); 2.2 ns and 3.9 ns (in CN(C)C=O).
`CC(C)(C)c1ccc2c(c1)-c1c3c(c4c5c1-c1cc(C(C)(C)C)ccc1OB5Oc1ccc(C(C)(C)C)cc1-4)-c1cc(C(C)(C)C)ccc1OB3O2`: the fluorescence lifetime (in ClCCl) came to 3.96 ns.
For `N#Cc1nc(-c2ccc(N3c4ccccc4Oc4ccccc43)cc2)c(-c2ccc(N3c4ccccc4Oc4ccccc43)cc2)nc1C#N`, for the setting “in c1cc(-c2cccc(-n3c4ccccc4c4ccccc43)c2)cc(-n2c3ccccc3c3ccccc32)c1”, the fluorescence lifetime stood at 21 ns.
With `CCCCCCC(CCCCCC)N1C(=O)c2cccc3c(-c4ccc(N(C)C)cc4)ccc(c23)C1=O`, the fluorescence lifetime is, setting by setting: (in CCCCCC) 3.47 ns; (in CCCCCCCCCCCCCC) 3.61 ns; (in CCCCCCCCCCCO) 5.51 ns; (in CCCCO) 3.5 ns; (in Cc1ccccc1) 5.12 ns; (in ClC(Cl)Cl) 6.99 ns.
`CCN(CC)c1ccc2cc(/C(Cl)=C/C=C/C(=C(C#N)C#N)c3ccc(N(c4ccccc4)c4ccccc4)cc3)c(=O)oc2c1`: the fluorescence lifetime by setting is: (in CC(C)=O) 1.51 ns; (in CCOC(C)=O) 2.42 ns; (in CN(C)C=O) 0.21 ns; (in CS(C)=O) 0.18 ns; (in Cc1ccccc1) 1.95 ns; (in ClCCl) 1.56 ns.
In turn, `CCn1c2sccc2c2c3nsnc3c3c4ccsc4n(CC)c3c21` yielded a fluorescence lifetime (in C1CCOC1) of 15 ns; a fluorescence lifetime (in CCOC(C)=O) of 15.6 ns; a fluorescence lifetime (in CN(C)C=O) of 16.8 ns; a fluorescence lifetime (in Cc1ccccc1) of 13 ns; a fluorescence lifetime (in ClCCl) of 14.6 ns.
Take `Nc1ccc2c(c1)C(=O)c1ccc(N)cc1C2=O`: the fluorescence lifetime (in CC#N) came to 1.85 ns; the fluorescence lifetime (in CC(C)O) came to 0.6 ns; the fluorescence lifetime (in CCO) was determined as 0.47 ns; the fluorescence lifetime (in CCOC(C)=O) was found to be 2.01 ns; the fluorescence lifetime (in CO) was 0.34 ns.
Turning to `O=c1oc2ccc3ccccc3c2nc1-c1ccccc1`, the fluorescence lifetime (in c1ccccc1) was 2.2 ns and 2.6 ns.
With `O=S(=O)(c1ccc(N2c3ccccc3[Si](c3ccccc3)(c3ccccc3)c3ccccc32)cc1)c1ccc(N2c3ccccc3[Si](c3ccccc3)(c3ccccc3)c3ccccc32)cc1`, where the note is “in c1cc(-n2c3ccccc3c3ccccc32)cc(-n2c3ccccc3c3ccccc32)c1”, the fluorescence lifetime was determined as 4 ns.
Molecule `C[Si](C)(C)c1ccc(-c2ccc(-c3ccc(-c4ccc(-c5ccc([Si](C)(C)C)s5)s4)c4nsnc34)s2)s1` gave a fluorescence lifetime (in C1CCOC1) of 5.8 ns.
For the molecule `Cc1ccc(-c2c3ccc([nH]3)c3nc(c(-c4ccc(C#N)cc4)c4ccc([nH]4)c4ccc([nH]4)c(-c4ccc(C)cc4)c4ccc2o4)C=C3)cc1`, the fluorescence lifetime reads like this: (in C1CCOC1) 5.26 ns; (in Cc1ccccc1) 4.39 ns; (in c1ccccc1) 5.94 ns.
The molecule `CCN(CC)c1ccc(C=Cc2nc3nc4ccccc4nc3s2)c(OC)c1` gave a fluorescence lifetime (in CCCCCCC(C)O) of 0.977 ns; a fluorescence lifetime (in CCOC(C)=O) of 0.96 ns; a fluorescence lifetime (in CO) of 0.04 ns; a fluorescence lifetime (in CS(C)=O) of 0.41 ns; a fluorescence lifetime (in Cc1ccccc1) of 0.27 ns; a fluorescence lifetime (in ClC(Cl)Cl) of 0.97 ns. For the setting “in ClCCl”, this molecule came in with a fluorescence lifetime of 1.29 ns.
Turning to `Nc1cc([NH3+])cc(-c2nc3ccccc3s2)c1`, where the note is “in O”, the fluorescence lifetime came out at 3.87 ns.
On the same count and under the same terms, the same measure for `O=S(=O)([O-])c1ccc([O-])c2ccccc12`: 15 ns.
Where the note is “in Cc1ccccc1”, `CC(C)(C)c1ccc2c(c1)B1c3cc(C(C)(C)C)ccc3Oc3cc(-n4c5ccccc5c5c6c(c7ccccc7n6-c6ccccc6)c6c(c7ccccc7n6-c6ccccc6)c54)cc(c31)O2` gave a fluorescence lifetime of 19.6 ns.
Where the note is “in ClCCl”, `COc1ccc(-c2c3ccccc3c(C#Cc3ccccc3)c3ccccc23)cc1` gave a fluorescence lifetime of 2.8 ns.
Same read-out and setting: the same measure for `N#Cc1ccc(-n2c(-c3ccc(-c4ccc(-n5c6ccccc6c6ccccc65)cc4)s3)nc3c4ccccc4c4ccccc4c32)c2ccccc12`: 4.3 ns.
Consider `c1ccc2c(-n3cnc4ccccc43)cccc2c1`, for which the fluorescence lifetime runs as follows: (in C1CCCCC1) 5.1 ns; (in CCOC(C)=O) 4.6 ns; (in CO) 4.3 ns.
Turning to `CN(C)c1ccc2c(c1)C(=O)c1ccccc1-2`, the fluorescence lifetime runs as follows: (in C1CCCCC1) 3.3 ns; (in c1ccccc1) 0.79 ns.
Molecule `CCCCCCOc1cc(/C=C/c2cc(OCCCCCC)c(/C=C/c3cc(OCCCCCC)c(C=O)cc3OCCCCCC)cc2OCCCCCC)c(OCCCCCC)cc1C=O` displayed a fluorescence lifetime (in ClCCl) of 1.77 ns.
The molecule `CCN(CC)c1ccc2c(C(F)(F)F)cc(=O)oc2c1` displayed a fluorescence lifetime (in C1CCCCC1) of 4.1 ns; a fluorescence lifetime (in CC#N) of 0.6 ns; a fluorescence lifetime (in CCO) of 0.85 ns; a fluorescence lifetime (in CCOC(C)=O) of 4.6 ns; a fluorescence lifetime (in OCC(O)CO) of 2.7 ns.
Molecule `CN1CCCc2cc(C3=Cc4cccc[n+]4[B-](F)(F)O3)ccc21` came in with a fluorescence lifetime (in ClC(Cl)Cl) of 3 ns.
Take `c1cc2cccc3c4cccc5cccc(c(c1)c23)c54`: the fluorescence lifetime (in C1CCCCC1) amounted to 4.7 ns.
Take `CC1(C)CC(/C=C/c2ccc(-n3ccnc3)cc2)=CC(=C(C#N)C#N)C1`: for the setting “in CCO”, the fluorescence lifetime worked out at 0.03 ns.
Consider `CCC1(CC)c2cc(B(c3c(C)cc(C)cc3C)c3c(C)cc(C)cc3C)ccc2-c2ccc(N(c3ccccc3)c3ccccc3)cc21`, for which the fluorescence lifetime reads like this: (in C1CCOC1) 2.5 ns; (in CC#N) 3.5 ns; (in CC(C)=O) 2.9 ns; (in CCCCCC) 1.6 ns; (in CN(C)C=O) 3.5 ns; (in Cc1ccccc1) 1.8 ns. In addition, under “in ClC(Cl)Cl”, the fluorescence lifetime turned out to be 2.2 ns.
Take `CCCCC(CC)COc1ccc2nc(-c3ccc(-c4ccccc4)s3)sc2c1` (stereo not drawn): under “in ClCCl”, the fluorescence lifetime was determined as 1.14 ns.
For `Cc1cc(C)c2nc3[nH]c(=O)[nH]c(=O)c3nc2c1`, the fluorescence lifetime (in CC#N) stood at 1.65 ns.
For `N#Cc1ncc(-c2c3ccccc3c(-c3cnc(C#N)nc3)c3ccccc23)cn1`, the fluorescence lifetime (in CCO) turned out to be 1.8 ns and the fluorescence lifetime (in ClCCl) came to 5.8 ns.
For the molecule `C#CCn1c2ccccc2c2cc(/C=C/c3c(Cl)c(C)c4n3[B-](F)(F)[N+]3=C(C)C(Cl)=C(C)C3=C4c3ccc(I)cc3)ccc21`, the fluorescence lifetime reads like this: (in CC#N) 3.95 ns; (in CS(C)=O) 3.06 ns; (in ClC(Cl)Cl) 4.24 ns.
For `c1ccc(-c2cc(-c3ccc(N4c5ccccc5C(c5ccccc5)(c5ccccc5)c5ccccc54)cn3)nc(-c3ccccc3)n2)cc1`, under setting [1], the fluorescence lifetime came out at 13.3 ns.
The molecule `CCCCCCCCCCn1nnc(-c2ccc(C#Cc3ccc(C#Cc4ccc(-c5nnn(CCCCCCCCCC)n5)cc4)c4nc5c6ccccc6c6ccccc6c5nc34)cc2)n1` came in with a fluorescence lifetime (in C1CCOC1) of 3.66 ns, a fluorescence lifetime (in Cc1ccccc1) of 2.52 ns and a fluorescence lifetime (in ClCCl) of 4.8 ns.
For `CCCCCCN1C(=O)c2cccc3c(-c4ccc(-c5ccc(-c6ccc7c8c(cccc68)C(=O)N(CCCCCC)C7=O)s5)s4)ccc(c23)C1=O`, the fluorescence lifetime (in ClC(Cl)Cl) amounted to 0.535 ns.
For `CC(C)(C)c1ccc(-c2nc3c4ccc(-c5ccc6ccccc6c5)cc4c4cc(-c5ccc6ccccc6c5)ccc4c3n2-c2ccc(C(C)(C)C)cc2)cc1`, the fluorescence lifetime (in ClCCl) was 6.6 ns.
As for `Cc1cc(-c2ccccc2C)cc(C)[o+]1`, the fluorescence lifetime (in CC#N) worked out at 12.2 ns and the fluorescence lifetime (in ClCCl) came to 4.6 ns.
